# Measured values: article PMC10584170, “Machine learning-based phenotypic imaging to characterise the targetable biology of Plasmodium falciparum male gametocytes for the development of transmission-blocking antimalarials” (PLOS Pathogens, 2023)
# Like-named read-outs stand apart in the source and are kept apart here.
# Experiments:
# [1] = system: P. falciparum male gametocytes; test: P. falciparum Dual Gamete Formation Assay (PfDGFA), male readout (exflagellation); type: cell-based, Plasmodium falciparum NF54; details: for HitlevelM: number of replicates with >50% inhibition in the male readout; for Selectivity Ratio M: HepG2 Tox50 versus male IC50; for IC50: PfDGFA, 24 h incubation with gametocytes before induction, exflagellation readout, read-out: Male IC50
# Summary of the method: (§1)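 Day-14 NF54 gametocytes were incubated with compound for 24 h at 37°C under 1% O2/3% CO2/96% N2. Gametogenesis was triggered with ookinete medium (0.1 μM xanthurenic acid) plus Cy3-anti-Pfs25, and exflagellation was imaged by brightfield after cooling to 4°C then 28°C. Females were imaged by Pfs25 fluorescence 24 h later at 28°C.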
# [2] = system: P. falciparum female gametocytes; test: P. falciparum Dual Gamete Formation Assay (PfDGFA), female readout (Pfs25-positive female gametes); type: cell-based, Plasmodium falciparum NF54; details: for HitlevelF: number of replicates with >50% inhibition in the female readout; for Selectivity ratio F: HepG2 Tox50 versus female IC50; for IC50: PfDGFA, 24 h incubation with gametocytes before induction, female gamete readout, read-out: Female IC50
# Summary of the method: as §1
# [3] = system: HepG2 cells; test: HepG2 cytotoxicity counter-screen; details: cytotoxic activity against HepG2 cells
# [4] = Plasmodium falciparum, PfDGFA at 2µM, 24h preincubation with gametocytes, average of replicates, read-out: Average inhibition male (%)
# [5] = Plasmodium falciparum, PfDGFA at 2µM, 24h preincubation with gametocytes, replicate R1, read-out: % inhibition male (individual replicates) R1
# [6] = Plasmodium falciparum, PfDGFA at 2µM, 24h preincubation with gametocytes, replicate R2, read-out: % inhibition male (individual replicates) R2
# [7] = Plasmodium falciparum, PfDGFA at 2µM, 24h preincubation with gametocytes, replicate R4, read-out: % inhibition male (individual replicates) R4
# [8] = Plasmodium falciparum, PfDGFA at 2µM, 24h preincubation with gametocytes, average of replicates, read-out: Average inhibition female (%)
# [9] = Plasmodium falciparum, PfDGFA at 2µM, 24h preincubation with gametocytes, replicate R1, read-out: % inhibition female (individual replicates) R1
# [10] = Plasmodium falciparum, PfDGFA at 2µM, 24h preincubation with gametocytes, replicate R2, read-out: % inhibition female (individual replicates) R2
# [11] = Plasmodium falciparum, PfDGFA at 2µM, 24h preincubation with gametocytes, replicate R3, read-out: % inhibition female (individual replicates) R3
# [12] = Plasmodium falciparum, PfDGFA at 2µM, 24h preincubation with gametocytes, replicate R4, read-out: % inhibition female (individual replicates) R4
# [13] = 2µM, 24h preincubation with gametocytes, average of replicates
# [14] = 2µM, 24h preincubation with gametocytes, replicate R1
# [15] = 2µM, 24h preincubation with gametocytes, replicate R3
# [16] = 2µM, 24h preincubation with gametocytes, replicate R4
# [17] = PfDGFA at 2µM, 24h preincubation with gametocytes, average of replicates
# [18] = PfDGFA at 2µM, 24h preincubation with gametocytes, replicate R1
# [19] = PfDGFA at 2µM, 24h preincubation with gametocytes, replicate R3
# [20] = PfDGFA at 2µM, 24h preincubation with gametocytes, replicate R4
SMILES,Selectivity Ratio M [1],IC50 ([1]; Plasmodium falciparum),Selectivity ratio F [2],IC50 ([2]; Plasmodium falciparum),Tox50 [3],HitlevelM ([1]; 2µM),HitlevelF ([2]; 2µM),"Average inhibition male (%) [1, 13]","% inhibition male (individual replicates) R1 [1, 14]","% inhibition male (individual replicates) R3 [1, 15]","% inhibition male (individual replicates) R4 [1, 16]",IC50 [1],"Average inhibition female (%) [2, 13]","% inhibition female (individual replicates) R1 [2, 14]","% inhibition female (individual replicates) R3 [2, 15]","% inhibition female (individual replicates) R4 [2, 16]",IC50 [2],"Average inhibition male (%) [1, 17]","% inhibition male (individual replicates) R1 [1, 18]","% inhibition male (individual replicates) R3 [1, 19]",other results
Cc1cccc2nc(-c3ccc(-c4cccc(CNCCN5CCNCC5)c4)cc3)[nH]c12.O=C(O)C(F)(F)F [TCMDC-132867],12.97,1870 nM,2.66,9.11 µM,24.28 µM,,,,,,,,,,,,,,,,"HitlevelM ([1]; 2µM, 24h preincubation): 3; inhibition at 2 µM ([1]; Plasmodium falciparum, 2µM, 24h preincubation with gametocytes prior to induction of gametogenesis, average of replicates, read-out: Average inhibition male (%)): 46.3%; inhibition at 2 µM ([1]; Plasmodium falciparum, 2µM, 24h preincubation with gametocytes prior to induction of gametogenesis, replicate R1, read-out: % inhibition male (individual replicates) R1): 51.3%; inhibition at 2 µM ([1]; Plasmodium falciparum, 2µM, 24h preincubation with gametocytes prior to induction of gametogenesis, replicate R2, read-out: % inhibition male (individual replicates) R2): 52.2%; inhibition at 2 µM ([1]; Plasmodium falciparum, 2µM, 24h preincubation with gametocytes prior to induction of gametogenesis, replicate R3, read-out: % inhibition male (individual replicates) R3): 9.9%; inhibition at 2 µM ([1]; Plasmodium falciparum, 2µM, 24h preincubation with gametocytes prior to induction of gametogenesis, replicate R4, read-out: % inhibition male (individual replicates) R4): 71.6%; HitlevelF ([2]; 2µM, 24h preincubation): 1; inhibition at 2 µM ([2]; Plasmodium falciparum, 2µM, 24h preincubation with gametocytes prior to induction of gametogenesis, average of replicates, read-out: Average inhibition female (%)): 20.3%; inhibition at 2 µM ([2]; Plasmodium falciparum, 2µM, 24h preincubation with gametocytes prior to induction of gametogenesis, replicate R1, read-out: % inhibition female (individual replicates) R1): 12%; inhibition at 2 µM ([2]; Plasmodium falciparum, 2µM, 24h preincubation with gametocytes prior to induction of gametogenesis, replicate R2, read-out: % inhibition female (individual replicates) R2): 8.9%; inhibition at 2 µM ([2]; Plasmodium falciparum, 2µM, 24h preincubation with gametocytes prior to induction of gametogenesis, replicate R3, read-out: % inhibition female (individual replicates) R3): 0.36%; inhibition at 2 µM ([2]; Plasmodium falciparum, 2µM, 24h preincubation with gametocytes prior to induction of gametogenesis, replicate R4, read-out: % inhibition female (individual replicates) R4): 60%"
Fc1ccc2[nH]c(-c3ccc(-c4ccc(CNCCN5CCNCC5)cc4)s3)nc2c1.O=C(O)C(F)(F)F [TCMDC-132869],12.22,1970 nM,3.35,7.18 µM,24.05 µM,3,0,,,,,,,,,,,,,,"inhibition at 2 µM [1, 4]: 66.3%; inhibition at 2 µM [1, 5]: 55.2%; inhibition at 2 µM [1, 6]: 84.7%; inhibition at 2 µM ([1]; Plasmodium falciparum, PfDGFA at 2µM, 24h preincubation with gametocytes, replicate R3, read-out: % inhibition male (individual replicates) R3): 32.6%; inhibition at 2 µM [1, 7]: 92.9%; inhibition at 2 µM [2, 8]: 6.1%; inhibition at 2 µM [2, 9]: 10.8%; inhibition at 2 µM [2, 10]: 10.6%; inhibition at 2 µM [2, 11]: -3.4%; inhibition at 2 µM [2, 12]: 6.4%"
FC(F)(F)c1ccc2[nH]c(-c3cccc(-c4cccc(CNCCN5CCNCC5)c4)c3)nc2c1.O=C(O)C(F)(F)F [TCMDC-132871],6.65,,1.27,,10.12 µM,,,95.8%,94.1%,90.3%,100.2%,1520 nM,25.3%,24.1%,40.5%,19.2%,7.94 µM,,,,
FC(F)(F)c1ccc2[nH]c(-c3cccc(-c4ccc(CNCCN5CCNCC5)cc4)c3)nc2c1.O=C(O)C(F)(F)F [TCMDC-132872],9.17,,2.18,,14.49 µM,3,0,,,,,1580 nM,,,,,6.65 µM,72.1%,71.0%,37.9%,"% inhibition male (individual replicates) R4 [1, 20]: 97.6%; Average inhibition female (%) [2, 17]: 30.3%; % inhibition female (individual replicates) R1 [2, 18]: 24.6%; % inhibition female (individual replicates) R3 [2, 19]: 21.1%; % inhibition female (individual replicates) R4 [2, 20]: 42.9%"
COc1ccc(-c2cnc(N)c(-c3ccc(C(N)=O)cc3)c2)cc1OC [TCMDC-133349],54.05,280 nM,1.51,> 10 µM,15.14 µM,3,0,,,,,,,,,,,,,,"inhibition at 2 µM [1, 4]: 71.3%; inhibition at 2 µM [1, 5]: 80.4%; inhibition at 2 µM [1, 6]: 82.4%; inhibition at 2 µM [1, 7]: 51.1%; inhibition at 2 µM [2, 8]: 9.1%; inhibition at 2 µM [2, 9]: 0.18%; inhibition at 2 µM [2, 10]: 11.3%; inhibition at 2 µM [2, 11]: 7.9%; inhibition at 2 µM [2, 12]: 17.1%"
CNC(=O)c1ccccc1Nc1nc(Nc2ccc(CCN3CCN(C)CC3)cc2)ncc1Cl.Cl [TCMDC-133800],5.19,,0.03,,0.33 µM,,,96.7%,94.6%,98.6%,96.9%,60 nM,7.2%,6.8%,-10.4%,12.4%,,,,,
CNC(=O)c1ccccc1Nc1nc(Nc2cccc(CS(C)(=O)=O)c2)ncc1C.O=CO [TCMDC-133809],6.79,,0.1,,1.03 µM,,,90.9%,93.6%,92.1%,84.9%,150 nM,-2.2%,-7.2%,6.2%,-11.5%,,,,,
CN1CCC(N2CCN(Cc3cccc(-c4ccc(-c5nc6cc(C(F)(F)F)ccc6[nH]5)cc4)c3)CC2)CC1.O=C(O)C(F)(F)F [TCMDC-133842],3.46,,1.63,,5.34 µM,4,1,,,,,1540 nM,,,,,3.27 µM,86.6%,86.4%,71.8%,"% inhibition male (individual replicates) R4 [1, 20]: 92.9%; Average inhibition female (%) [2, 17]: 30.2%; % inhibition female (individual replicates) R1 [2, 18]: 16.8%; % inhibition female (individual replicates) R3 [2, 19]: 18.6%; % inhibition female (individual replicates) R4 [2, 20]: 31.1%"
Fc1ccc2[nH]c(-c3ccc(-c4ccc(CN5CCC(CCN6CCCCC6)CC5)cc4)s3)nc2c1.O=C(O)C(F)(F)F [TCMDC-133932],3.55,,1.07,,4.83 µM,4,1,,,,,1360 nM,,,,,4.5 µM,85.6%,90.7%,68.9%,"% inhibition male (individual replicates) R4 [1, 20]: 86.9%; Average inhibition female (%) [2, 17]: 38.7%; % inhibition female (individual replicates) R1 [2, 18]: 37.3%; % inhibition female (individual replicates) R3 [2, 19]: 32.0%; % inhibition female (individual replicates) R4 [2, 20]: 25.9%"
Cl.NC(=O)c1ccccc1Nc1nc(Nc2cccc(N3CCN(CCO)CC3)c2)ncc1Cl [TCMDC-134114],28.08,470 nM,1.31,> 10 µM,13.07 µM,,,,,,,,,,,,,,,,"inhibition at 2 µM ([1]; Plasmodium falciparum, 2µM, 24h preincubation with gametocytes, average of replicates, read-out: Average inhibition male (%)): 96.1%; inhibition at 2 µM ([1]; Plasmodium falciparum, 2µM, 24h preincubation with gametocytes, replicate R1, read-out: % inhibition male (individual replicates) R1): 97.9%; inhibition at 2 µM ([1]; Plasmodium falciparum, 2µM, 24h preincubation with gametocytes, replicate R2, read-out: % inhibition male (individual replicates) R2): 97.4%; inhibition at 2 µM ([1]; Plasmodium falciparum, 2µM, 24h preincubation with gametocytes, replicate R3, read-out: % inhibition male (individual replicates) R3): 96.2%; inhibition at 2 µM ([1]; Plasmodium falciparum, 2µM, 24h preincubation with gametocytes, replicate R4, read-out: % inhibition male (individual replicates) R4): 92.9%; inhibition at 2 µM ([2]; Plasmodium falciparum, 2µM, 24h preincubation with gametocytes, average of replicates, read-out: Average inhibition female (%)): 4.2%; inhibition at 2 µM ([2]; Plasmodium falciparum, 2µM, 24h preincubation with gametocytes, replicate R1, read-out: % inhibition female (individual replicates) R1): 11.2%; inhibition at 2 µM ([2]; Plasmodium falciparum, 2µM, 24h preincubation with gametocytes, replicate R2, read-out: % inhibition female (individual replicates) R2): 7.4%; inhibition at 2 µM ([2]; Plasmodium falciparum, 2µM, 24h preincubation with gametocytes, replicate R3, read-out: % inhibition female (individual replicates) R3): -5%; inhibition at 2 µM ([2]; Plasmodium falciparum, 2µM, 24h preincubation with gametocytes, replicate R4, read-out: % inhibition female (individual replicates) R4): 3.4%"
